Measured values published in patent publication EP4603105A1, “PHARMACEUTICAL COMPOSITION CONTAINING CYCLIC COMPOUND HAVING SELECTIVE KRAS INHIBITORY EFFECT AGAINST HRAS AND NRAS” (CHUGAI SEIYAKU KABUSHIKI KAISHA, priority 2022, dated 2024).
Where a SMILES comes first, the peptide text is derived from it. Bridges are numbered along the chain shown (N, C = ends). [ ]: non-standard residue; d: D form. The star is where a group is joined. hPhe(3,5-F2-4-CF3) = N[C@@H](CCc1cc(F)c(C(F)(F)F)c(F)c1)C(=O)O; hPhe(3-Cl-4-CF3) = N[C@@H](CCc1ccc(C(F)(F)F)c(Cl)c1)C(=O)O; NPrPhe(4-CF3) = CCCN[C@@H](Cc1ccc(C(F)(F)F)cc1)C(=O)O; NMeAbu(4,4,4-F3) = CN[C@@H](CC(F)(F)F)C(=O)O; NMeGly(cPent) = CN[C@H](C(=O)O)C1CCCC1; Hyp = O=C(O)[C@@H]1C[C@@H](O)CN1; NMeD = CN[C@@H](CC(=O)O)C(=O)O; NMeL = CN[C@@H](CC(C)C)C(=O)O; Morpholide = C1CN(*)CCO1; Ac5c = NC1(C(=O)O)CCCC1; Aze = O=C(O)[C@@H]1CCN1; Sar = CNCC(=O)O

Assays:
[1] = molecular target: GDP-bound NRAS wild-type protein (Homo sapiens, UniProt P01111); experiment: Binding to NRAS by surface plasmon resonance (SPR), KD and KD ratio to KRAS
Procedure, shortened: (§1)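 Running buffer contained 10 µM GDP and 10 mM MgCl2 to keep RAS in the GDP state, with 4% DMSO at pH 7.4. Compounds were flowed at 100 µL/min in 75 s steps of rising concentration over captured biotin-Avi RAS at 30°C. Sensorgrams were fitted 1:1 for KD.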

[2] = molecular target: HRAS wild-type protein (Homo sapiens, UniProt P01112); experiment: Binding to HRAS by surface plasmon resonance (SPR), KD and KD ratio to KRAS
Procedure, shortened: as §1

[3] = test system: human lung cancer strain NCI-H441; type: cell-based
Procedure, shortened: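 Step one: dispense the test compound in serial DMSO dilutions. Step three: add the reagent and measure […].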

[4] = ratio of KD for GDP-bound NRAS wild-type protein to KD for KRAS
[5] = ratio of KD for HRAS wild-type protein to KD for KRAS
[6] = ratio of the KD value with respect to GDP-bound NRAS wild-type protein to the KD value with respect to KRAS
[7] = ratio of the KD value with respect to HRAS wild-type protein to the KD value with respect to KRAS
[8] = ratio of KD value for GDP-bound NRAS wild-type protein to KD value for KRAS (SPR)
[9] = ratio of KD value for HRAS wild-type protein to KD value for KRAS (SPR)

Chain of GDP-bound NRAS wild-type protein (P01111 whole entry): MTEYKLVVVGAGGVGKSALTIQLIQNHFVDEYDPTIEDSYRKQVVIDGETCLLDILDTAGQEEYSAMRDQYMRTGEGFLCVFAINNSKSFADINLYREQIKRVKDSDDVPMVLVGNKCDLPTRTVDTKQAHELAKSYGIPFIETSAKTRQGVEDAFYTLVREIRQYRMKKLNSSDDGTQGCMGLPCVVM
Chain of HRAS wild-type protein (P01112 whole entry): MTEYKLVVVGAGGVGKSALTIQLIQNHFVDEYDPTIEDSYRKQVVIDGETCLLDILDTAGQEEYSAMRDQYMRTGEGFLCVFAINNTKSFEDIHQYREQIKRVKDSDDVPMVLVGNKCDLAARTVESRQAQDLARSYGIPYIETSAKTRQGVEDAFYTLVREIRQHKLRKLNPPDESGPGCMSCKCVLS

SMILES | IC50 [3] [nM] | NRAS /KRAS [1, 4] | HRAS /KRAS [2, 5] | NRAS /KRAS [1, 6] | HRAS /KRAS [2, 7] | further results
CCCN1C(=O)[C@@H]2CCN2C(=O)CN(C)C(=O)[C@H]([C@@H](C)CC)NC(=O)[C@H](CC(C)C)N(C)C(=O)C[C@@H](C(=O)N2CCOCC2)N(C)C(=O)[C@H](CC(F)(F)F)N(C)C(=O)C2(CCCC2)NC(=O)[C@@H]2CCCN2C(=O)[C@H](CCc2cc(F)c(C(F)(F)F)c(F)c2)NC(=O)CN(C)C(=O)[C@@H]1Cc1ccc(C(F)(F)F)cc1 [PP0803] ([NMeL]I[Sar][Aze][NPrPhe(4-CF3)][Sar][hPhe(3,5-F2-4-CF3)]P[Ac5c][NMeAbu(4,4,4-F3)][NMeD]-Morpholide; lactam N-11) | 52.5 | C (A compound having a KD ratio of 0.1 or more and less than 3 is denoted as C) | B (a compound having 3 or more and less than 10 is denoted as B) |  |  | 
CCO[C@@H]1C[C@H]2C(=O)NC3(CCC3)C(=O)N(C)[C@@H](C3CCCC3)C(=O)N(C)[C@H](C(=O)N(C)CCOC)CC(=O)N(C)[C@@H](CC3CC3)C(=O)N[C@@H]([C@@H](C)CC)C(=O)N(C)CC(=O)N(C)[C@H]3C/C=C\CCN(C3=O)[C@@H](Cc3ccc(C(F)(F)F)cc3)C(=O)N(C)CC(=O)N[C@@H](CCc3ccc4sccc4c3)C(=O)N2C1 [PP1328] | 134 |  |  |  |  | NRAS /KRAS ([1]; ratio of KD with respect to GDP-bound NRAS wild-type protein to KD with respect to KRAS): A (a compound having 10 or more and less than 20 is denoted as A); HRAS /KRAS ([2]; ratio of KD with respect to HRAS wild-type protein to KD with respect to KRAS): A (a compound having 10 or more and less than 20 is denoted as A)
CCC[C@H]1C(=O)N[C@@H]([C@@H](C)CC)C(=O)N(C)CC(=O)N(C)[C@H]2C/C=C\CCN(C2=O)[C@@H](Cc2ccc(C)cc2)C(=O)N(C)CC(=O)N[C@@H](CCc2ccc(C(F)(F)F)c(Cl)c2)C(=O)N2C[C@H](OCC)C[C@H]2C(=O)NC2(CCC2)C(=O)N(C)[C@@H](C2CCCC2)C(=O)N(C)[C@H](C(=O)N(C)CC)CC(=O)N1C [PP1895] | 15.6 |  |  |  |  | NRAS /KRAS [1, 8]: A (a compound having 10 or more and less than 20 is denoted as A); HRAS /KRAS [2, 9]: B (a compound having 3 or more and less than 10 is denoted as B)
CC[C@H](C)[C@@H]1NC(=O)[C@H](CC(C)C)N(C)C(=O)C[C@@H](C(=O)N2CCOCC2)N(C)C(=O)[C@H](C2CCCC2)N(C)C(=O)C2(CCC2)NC(=O)[C@@H]2CC(F)(F)CN2C(=O)[C@H](CCc2cc(F)c(C(F)(F)F)c(F)c2)NC(=O)CN(C)C(=O)[C@H](Cc2ccc(C(F)(F)F)cc2)N2CCCCC[C@@H](C2=O)N(C)C(=O)CN(C)C1=O [PP0464] | 17.6 |  |  | B (a compound having 3 or more and less than 10 is denoted as B) | B (a compound having 3 or more and less than 10 is denoted as B) | 
CCO[C@@H]1C[C@H]2C(=O)NC3(CC(C)(C)C3)C(=O)N(C)[C@@H](C(CC)CC)C(=O)N(C)[C@H](C(=O)N3CCCC3)CC(=O)N(C)[C@@H](C)C(=O)N[C@@H]([C@@H](C)CC)C(=O)N(C)CC(=O)N(C)[C@H]3C/C=C\CCN(C3=O)[C@@H](Cc3ccc(C)cc3)C(=O)N(C)CC(=O)N[C@@H](CCc3cc(F)c(C(F)(F)F)c(F)c3)C(=O)N2C1 [PP2145] | 17.2 |  |  | A (a compound having 10 or more and less than 20 is denoted as A) | A (a compound having 10 or more and less than 20 is denoted as A) | 
CCO[C@@H]1C[C@H]2C(=O)NC3(CCC3)C(=O)N(C)[C@@H](C3CCCC3)C(=O)N(C)[C@H](C(=O)N3CCOCC3)CC(=O)N(C)[C@@H](CC(C)C)C(=O)N[C@@H]([C@@H](C)CC)C(=O)N(C)CC(=O)N(C)[C@H]3CC=CCN(C3=O)[C@@H](Cc3ccc(C(F)(F)F)cc3)C(=O)N(C)CC(=O)N[C@@H](CCc3cc(F)c(C(F)(F)F)c(F)c3)C(=O)N2C1 [PP0832] | 21.5 | C (A compound having a KD ratio of 0.1 or more and less than 3 is denoted as C) | C (A compound having a KD ratio of 0.1 or more and less than 3 is denoted as C) |  |  | 

The next compounds have a lower IC50 [3] than those just listed; values first:

IC50 [3] [nM] | SMILES | NRAS /KRAS [1, 4] | HRAS /KRAS [2, 5] | NRAS /KRAS [1, 6] | HRAS /KRAS [2, 7] | further results
11.6 | CCCN(C)C(=O)[C@@H]1CC(=O)N(C)[C@@H](COCC)C(=O)N[C@@H]([C@@H](C)CC)C(=O)N(C)CC(=O)N(C)[C@H]2C/C=C\CCN(C2=O)[C@@H](Cc2ccc(C(F)(F)F)cc2)C(=O)N(C)CC(=O)N[C@@H](CCc2ccc(C(F)(F)F)c(OC)c2)C(=O)N2C[C@H](OCC)C[C@H]2C(=O)NC2(CC(C)(C)C2)C(=O)N(C)[C@@H](C2CCCC2)C(=O)N1C [PP2012] |  |  | AA (a compound having 20 or more is denoted as AA) | A (a compound having 10 or more and less than 20 is denoted as A) | 
7.3 | CCO[C@@H]1C[C@H]2C(=O)NC3(CC(F)(F)C3)C(=O)N(C)[C@@H](C3CCCC3)C(=O)N(C)[C@H](C(=O)N3CCOCC3)CC(=O)N(C)[C@@H](CC(C)C)C(=O)N[C@@H]([C@@H](C)CC)C(=O)N(C)CC(=O)N(C)[C@H]3CC=C(C)CN(C3=O)[C@@H](Cc3ccc(C(F)(F)F)cc3)C(=O)N(C)CC(=O)N[C@@H](CCc3cc(F)c(C(F)(F)F)c(F)c3)C(=O)N2C1 [PP0828] | C (A compound having a KD ratio of 0.1 or more and less than 3 is denoted as C) | C (A compound having a KD ratio of 0.1 or more and less than 3 is denoted as C) |  |  | 
5.6 | CCCN(C)C(=O)[C@@H]1CC(=O)N(C)[C@@H](COCC)C(=O)N[C@@H]([C@@H](C)CC)C(=O)N(C)CC(=O)N(C)[C@H]2C/C=C\CCN(C2=O)[C@@H](Cc2ccc(C(F)(F)F)cc2)C(=O)N(C)CC(=O)N[C@@H](CCc2ccc(C(F)(F)F)c(OC)c2)C(=O)N2C[C@H](OCC)C[C@H]2C(=O)NC2(CCC2)C(=O)N(C)[C@@H](C2CCCC2)C(=O)N1C [PP2015] |  |  | A (a compound having 10 or more and less than 20 is denoted as A) | B (a compound having 3 or more and less than 10 is denoted as B) | 
6.8 | CC[C@H](C)[C@@H]1NC(=O)[C@H](CC2CC2)N(C)C(=O)C[C@@H](C(=O)N(CC)CC)N(C)C(=O)[C@H](C2CCCC2)N(C)C(=O)C2(CC(C)(C)C2)NC(=O)[C@@H]2C[C@@H](F)CN2C(=O)[C@H](CCc2cc(F)c(C(F)(F)F)c(F)c2)NC(=O)CN(C)C(=O)[C@H](Cc2ccc(C(F)(F)F)cc2)N2CC/C=C\C[C@@H](C2=O)N(C)C(=O)CN(C)C1=O [PP1571] |  |  |  |  | NRAS /KRAS [1, 8]: A (a compound having 10 or more and less than 20 is denoted as A); HRAS /KRAS [2, 9]: A (a compound having 10 or more and less than 20 is denoted as A)
4 | CC[C@H](C)[C@@H]1NC(=O)[C@H](CC(C)C)N(C)C(=O)C[C@@H](C(=O)N(C)C)N(C)C(=O)[C@H](C2CCCC2)N(C)C(=O)C2(CC(C)(C)C2)NC(=O)[C@@H]2CCCN2C(=O)[C@H](CCc2cc(F)c(C(F)(F)F)c(F)c2)NC(=O)CN(C)C(=O)[C@H](Cc2ccc(C(F)(F)F)cc2)N2CC/C=C\C[C@@H](C2=O)N(C)C(=O)CN(C)C1=O [PP1727] |  |  |  |  | NRAS /KRAS [1, 8]: A (a compound having 10 or more and less than 20 is denoted as A); HRAS /KRAS [2, 9]: A (a compound having 10 or more and less than 20 is denoted as A)
13.8 | CCCN1C(=O)CN(C)C(=O)[C@@H]2CCN2C(=O)[C@H]([C@@H](C)CC)NC(=O)[C@H](CC(C)C)N(C)C(=O)C[C@@H](C(=O)N2CCOCC2)N(C)C(=O)[C@H](C2CCCC2)N(C)C(=O)C2(CCCC2)NC(=O)[C@@H]2C[C@@H](OCC)CN2C(=O)[C@H](CCc2ccc(C(F)(F)F)c(Cl)c2)NC(=O)CN(C)C(=O)[C@@H]1Cc1ccc(C(F)(F)F)cc1 [PP0310] ([NMeL]I[Aze][Sar][NPrPhe(4-CF3)][Sar][hPhe(3-Cl-4-CF3)][Hyp](Et)[Ac5c][NMeGly(cPent)][NMeD]-Morpholide; lactam N-11) | B (a compound having 3 or more and less than 10 is denoted as B) | C (A compound having a KD ratio of 0.1 or more and less than 3 is denoted as C) |  |  | 
